Test results reported in patent US7700584B2 (Hangzhou Minsheng Pharmaceuticals Co., Ltd., priority 2004, dated 2010).
Converted amounts (≈) assume the structure as drawn. Where two headings read alike, the source gives them in different places.

Tests used:
[1] = system: Hela human cervical carcinoma; experiment: In vitro inhibition rate to tumor cells (MTT), Hela; assay type: cell-based; conditions: 50 μg/ml; for inhibition at 50 µg/mL: Homo sapiens, HeLa, read-out: inhibition rate, Results (%) Hela
[2] = system: U-937 human histocytic lymphoma; experiment: In vitro inhibition rate to tumor cells (MTT), U-937; assay type: cell-based; conditions: for inhibition rate, Results (%) U-937: 50 μg/ml; for inhibition at 50 µg/mL: Homo sapiens, U-937, 50 μg/ml, read-out: inhibition rate, Results (%) U-937
[3] = system: LLC mouse Lewis lung carcinoma; experiment: In vitro inhibition rate to tumor cells (MTT), LLC; assay type: cell-based; conditions: 50 μg/ml; for inhibition at 50 µg/mL: Mus musculus, Lewis lung carcinoma
[4] = system: Bel-7402 human hepatic carcinoma; experiment: In vitro inhibition rate to tumor cells (MTT), Bel-7402; assay type: cell-based; conditions: for inhibition rate, Results (%) Bel-7402: 50 μg/ml; for inhibition at 50 µg/mL: Homo sapiens, Bel-7402, 50 μg/ml, read-out: inhibition rate, Results (%) Bel-7402
[5] = system: A-549 human lung adenocarcinoma; experiment: In vitro inhibition rate to tumor cells (MTT), A-549; assay type: cell-based; conditions: for inhibition rate, Results (%) A-549: 50 μg/ml; for inhibition at 50 µg/mL: Homo sapiens, A549, 50 μg/ml, read-out: inhibition rate, Results (%) A-549
[6] = system: Hela human cervical carcinoma; experiment: In vitro anti-tumor IC50 (MTT), Hela; assay type: cell-based; conditions: Table 4
Procedure: (§1) (1) Single cell suspension was seeded into 96-well plates (the cells was diluted in the PRMI-1640 minimum medium to 3×10^4 cells/ml, […] diluted cells/well). […] The experiments were performed in quadruplicate.
(§2) (2) The medium was removed. Solutions of the anti-tumor agents (50 compounds) were prepared in a freshly prepared medium at serial concentrations. […] of the solution was added into each well. Incubation was continued for 48 hours.
(§3) (3) 20 ug of 2 mg/ml MTT was added into each well, and incubated for 4 hours.
(§4) (4) The medium was removed from the well. The microplates were swiftly turned down to throw-off the medium. […] of DMSO was added into each well, and vortexed at room temperature for 10 minutes.
(§5) (5) OD value (λ=570 nm) was measured with an Enzyme-Linked Detector.
(§6) (6) The graph of cell vitality was plotted, and IC50 was calculated.

[7] = system: U-937 human histocytic lymphoma; experiment: In vitro anti-tumor IC50 (MTT), U-937; assay type: cell-based; conditions: Table 4
Procedure: as §1, §2, §3, §4, §5, §6

[8] = system: MCF-7 human mammary adenocarcinoma; experiment: In vitro inhibition rate to tumor cells (MTT), MCF-7; assay type: cell-based; conditions: for inhibition rate, Results (%) MCF-7: 50 μg/ml; for inhibition at 50 µg/mL: Homo sapiens, MCF7, 50 μg/ml, read-out: inhibition rate, Results (%) MCF-7
[9] = system: SMMC-7721 human hepatic carcinoma; experiment: In vitro inhibition rate to tumor cells (MTT), SMMC-7721; assay type: cell-based; conditions: for inhibition rate, Results (%) SMMC-7721: 50 μg/ml; for inhibition at 50 µg/mL: Homo sapiens, SMMC-7721, 50 μg/ml, read-out: inhibition rate, Results (%) SMMC-7721
[10] = system: HL-60 human promyelocytic leukemia; experiment: In vitro inhibition rate to tumor cells (MTT), HL-60; assay type: cell-based; conditions: for inhibition rate, Results (%) HL-60: 50 μg/ml; for inhibition at 50 µg/mL: Homo sapiens, HL-60, 50 μg/ml, read-out: inhibition rate, Results (%) HL-60
[11] = system: HepG2 cells; experiment: Cell status of HepG2 cells treated with sample (HBV screening); assay type: cell-based; conditions: 200 μg/ml, HepG2, four days after infection
[12] = system: MDCK (dog kidney) cells; experiment: Toxicity TC50 of the samples in MDCK cells (influenza screening); conditions: concentration of 50% toxicity
[13] = system: Hepatitis B virus (HBV); assay type: cell-based; conditions: 200 μg/ml; for (Value of the positive control - Measured Value) Value of the positive control × 100%: decrease of HBeAg relative to positive control; for OD450 of HBeAg: supernatant four days after infection, positive control 1.917, negative 0.057
[14] = target: T1, HIV-1 reverse transcriptase (Human immunodeficiency virus type 1 group M subtype B, UniProt P04585); experiment: Screening for the in vitro activity against the HIV-1 reverse transcriptase; assay type: biochemical; conditions: IC50, initial concentration 200 μg/ml
T1 construct: purchased
Procedure: Principle of the test: The template to which the HIV-1 reverse transcriptase interacts was covered onto the enzyme-lined template. In the optimal reaction conditions and system, HIV-1 RT will put the substrate comprising Biotin-dUTP onto the reaction template. The activity of the enzyme was measured as the amount of the integrating Biotin-dUTP in the reaction by using streptavidin-labeled horseradish peroxidase. Adding the sample to the reaction system can identify inhibitor of the enzyme.
1. HIV-1 RT: commercially available.
2. Treatment of the samples: Before use, the sample was dissolved in DMSO at a suitable concentration, then serially diluted (5×) with double distilled water, five serial dilutions per sample.
4. Methods: The diluted sample was added into the reaction buffer containing Biotin-dUTP and the genetic engineered target enzyme, and incubated in the optimal reaction conditions. A streptavidin-labeled horseradish peroxidase was added to visual the system, and OD450 was measured.

[15] = target: T2, HIV-1 integrase (HIV-1 IN) (Human immunodeficiency virus type 1 group M subtype B, UniProt P04585); experiment: Screening for the activity against HIV-1 integrase; assay type: biochemical; conditions: initial concentration 100 μg/ml; read-out: IC50
T2 construct: a purified HIV-1 integrase was added into each well; purchased
Procedure: Principle of the test: A synthetic oligonucleotide of 30 nt was used as the donor substrate. A synthetic oligonucleotide of 20 nt was used as the target substrate. A 96-well plate was covered by the donor substrate, and a purified HIV-1 integrase was added into each well. ELISA was performed to measure the product of the target DNA chain transfer. A biotin-labeled alkali phosphatase was used to visual the system. OD value was measured by an Enzyme-linked Detector. Add a sample into the reaction system for screening the inhibitor of the enzyme.
1. HIV-1 IN: commercially available.
2. Treatment of the samples: Before use, the sample was dissolved in water or DMSO at a suitable concentration, then serially diluted (5×), four serial dilutions per sample. The stock solutions of two samples were 100-fold diluted with DMSO, then 5-fold diluted, four serial dilutions per sample. Positive control: S-y, provided by Shanghai Organic Chemistry Institute.
3. The donor substrate and target substrate: synthesized by Shanghai Biological Engineering Company (Shanghai Shenggong).
4. Methods: The diluted sample was added into a 96-well plate covered by the donor substrate, and then added into the reaction buffer containing the genetic engineered target enzyme and biotin-target substrate, incubated in the optimal reaction conditions. A biotin-labeled alkali phosphatase was used to visual the system to determine the absorbance at 450 nm (OD450).

[16] = target: T3, HIV-1 proteinase (HIV-1 PR) (Human immunodeficiency virus type 1 group M subtype B, UniProt P04585); experiment: Screening for in vitro activity against HIV-1 proteinase; assay type: biochemical; conditions: for inhibition at 0.08 µg/mL: 0.08 μg/ml; for inhibition at 0.08 µg/mL / inhibition at 0.4 µg/mL / inhibition at 2 µg/mL / inhibition at 10 µg/mL: read-out: Inhibition rate; for inhibition at 0.4 µg/mL: 0.40 μg/ml; for inhibition at 2 µg/mL: 2.0 μg/ml; for inhibition at 10 µg/mL: 10 μg/ml; for IC50: IC50, five 5× serial dilutions from 50 μg/ml; for inhibition at 50 µg/mL: read-out: Inhibition rate, 50 μg/ml
T3 construct: HIV-1 proteinase digests the fluorescent-labeled substrate; purchased
Procedure: Principle of the test: HIV-1 proteinase digests the fluorescent-labeled substrate in an optimal reaction condition and system. The activity of the enzyme can be reflected by the fluorescent intensity in the product of the enzyme reaction. Adding a sample into the reaction system can be used for screening the inhibitor of the enzyme.
1. HIV-1 PR: commercially available, stored at −85° C.
2. Treatment of the samples: Before use, sample was dissolved in DMSO at a suitable concentration, then serially diluted (5×) with double distilled water, five serial dilutions per sample.
3. Positive control: indinavir, purchased from […].
4. Methods: The diluted sample was added into the reaction buffer containing the fluorescent-labeled substrate. Then the genetic engineered target enzyme was added, and incubated in the optimal reaction condition. The fluorescent value was measured with a FLUO star Galaxy luminoscope.

Structure (SMILES)	inhibition at 50 µg/mL ([1]; Table 1)	inhibition at 50 µg/mL ([1]; Table 2 (repeated screening))	inhibition at 50 µg/mL ([2]; Table 1)	inhibition at 50 µg/mL ([2]; Table 2 (repeated screening))	Cell status [11]	inhibition at 50 µg/mL ([3]; Table 1)	inhibition at 50 µg/mL ([3]; Table 2 (repeated screening))	inhibition at 50 µg/mL ([4]; Table 1)	inhibition at 50 µg/mL ([4]; Table 2 (repeated screening))	inhibition at 50 µg/mL ([5]; Table 1)	inhibition at 50 µg/mL ([5]; Table 2 (repeated screening))	inhibition at 50 µg/mL ([8]; Table 1)	inhibition at 50 µg/mL ([8]; Table 2 (repeated screening))	inhibition at 50 µg/mL ([9]; Table 1)	inhibition at 50 µg/mL ([9]; Table 2 (repeated screening))	inhibition at 50 µg/mL ([10]; Table 1)	inhibition at 50 µg/mL ([10]; Table 2 (repeated screening))	(Value of the positive control - Measured Value) Value of the positive control × 100% [13]	OD450 of HBeAg [13]	IC50 [14]	further results
CCCCNC=C1CC2(O)OC3(CC2C(C)C)C(C)CCC13 (centres unmarked) [Compound 13, Curcumol n-butyl amine]	–	–	–	–	–	–	–	–	–	–	–	–	–	–	–	–	–	–	–	–	inhibition rate, Results (%) Hela ([1]; Table 1): 66.32%; inhibition rate, Results (%) Hela ([1]; Table 2 (repeated screening)): 65.92%; inhibition rate, Results (%) U-937 ([2]; Table 1): 51.10%; inhibition rate, Results (%) U-937 ([2]; Table 2 (repeated screening)): 45.10%; inhibition rate, Results (%) LLC ([3]; Table 1): 0.24%; inhibition rate, Results (%) LLC ([3]; Table 2 (repeated screening)): 1.32%; inhibition rate, Results (%) Bel-7402 ([4]; Table 1): 33.16%; inhibition rate, Results (%) Bel-7402 ([4]; Table 2 (repeated screening)): 30.25%; inhibition rate, Results (%) A-549 ([5]; Table 1): 7.59%; inhibition rate, Results (%) A-549 ([5]; Table 2 (repeated screening)): 3.56%; IC50 (ug/ml) against tumor cell lines, Hela [6]: 1.6 µg/mL (≈ 5.2 µM); IC50 (ug/ml) against tumor cell lines, U-937 [7]: 0.98 µg/mL (≈ 3.19 µM); inhibition rate, Results (%) MCF-7 ([8]; Table 1): 54.67%; inhibition rate, Results (%) MCF-7 ([8]; Table 2 (repeated screening)): 50.36%; inhibition rate, Results (%) SMMC-7721 ([9]; Table 1): 3.71%; inhibition rate, Results (%) SMMC-7721 ([9]; Table 2 (repeated screening)): 0.23%; inhibition rate, Results (%) HL-60 ([10]; Table 1): 0.12%; inhibition rate, Results (%) HL-60 ([10]; Table 2 (repeated screening)): 0.79%
C=C1CC2(OC)OC3(CC2C(C)C)C(C)CCC13 (centres unmarked) [Compound 25, Curcumol methyl ether]	81.9%	75.5%	86.9%	82.4%	Poor	4.18%	1.02%	5.68%	2.03%	13.7%	14.2%	9.53%	8.12%	0.24%	8.32%	-2.63%	1.23%	−31.8206%	2.527	–	TC50 [12]: >1000 µg/mL
CC(C)C1CC23OC1(O)CC(C)C2CCC3C (centres unmarked) [Compound 33, hydrogenated curcumol derivative]	60.9%	59.8%	44.3%	43.2%	Poor	4.18%	3.12%	14.3%	14.9%	16.3%	14.3%	45.3%	39.3%	-7.44%	-1.56%	1.32%	7.68%	96.45%	0.068	> 839 µM	inhibition at 100 µg/mL [15]: < 50%; inhibition at 0.08 µg/mL [16]: 13.2%; inhibition at 0.4 µg/mL [16]: 11.4%; inhibition at 2 µg/mL [16]: 10.6%; inhibition at 10 µg/mL [16]: 1.3%; IC50 [16]: > 210 µM; inhibition at 50 µg/mL [16]: 9.14%
CC(C)C1CC23OC1(O)CC1(CO1)C2CCC3C (centres unmarked) [Compound 47, Curcumol epoxy compound]	83.7%	80.8%	86.5%	85.4%	Poor	-13.2%	-14%	2.88%	2.35%	-12%	-7.85%	65.1%	60.5%	-1.43%	-3.25%	10.3%	1.96%	80.96%	0.365	> 793 µM	inhibition at 100 µg/mL [15]: < 50%; inhibition at 0.08 µg/mL [16]: 6.89%; inhibition at 0.4 µg/mL [16]: 12.3%; inhibition at 2 µg/mL [16]: 12.9%; inhibition at 10 µg/mL [16]: 1.78%; IC50 [16]: > 198 µM; inhibition at 50 µg/mL [16]: 0.56%
